Experimental data as given in patent US12077503B2, “Substituted cyclic amides and their use as herbicides” (FMC CORPORATION, priority 2015, dated 2024).
Like-named read-outs stand apart in the source and are kept apart here.

Tests used:
[1] = test system: ryegrass, Italian (Italian ryegrass, Lolium multiflorum); test: Test A preemergence; type: in vivo; conditions: Lolium multiflorum, pre-emergence, 240 h; for pest or weed control at 125 g/ha: 125 g ai/ha; for pest or weed control at 500 g/ha: 500 g ai/ha
In short: (§1)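 Preemergence soil spray on seeded pots or post-emergence spray on 1–2 leaf plants, in loam–sand blend. Greenhouse ~10 d. Visual rating 0–100 against untreated plants.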

[2] = test system: barnyardgrass (Echinochloa crus-galli); test: Test A preemergence; type: in vivo; conditions: Echinochloa crus-galli, pre-emergence, 240 h; for pest or weed control at 125 g/ha: 125 g ai/ha; for pest or weed control at 500 g/ha: 500 g ai/ha
In short: as §1

[3] = test system: giant foxtail (Setaria faberii); test: Test A preemergence; type: in vivo; conditions: Setaria faberi, pre-emergence, 240 h; for pest or weed control at 125 g/ha: 125 g ai/ha; for pest or weed control at 500 g/ha: 500 g ai/ha
In short: as §1

Kochia (Kochia scoparia) = test: Test A preemergence; type: in vivo; conditions: Bassia scoparia, pre-emergence, 240 h; for pest or weed control at 125 g/ha: 125 g ai/ha; for pest or weed control at 500 g/ha: 500 g ai/ha
In short: as §1

[4] = test system: ragweed (common ragweed, Ambrosia elatior); test: Test A preemergence; type: in vivo; conditions: Ambrosia artemisiifolia, pre-emergence, 240 h; for pest or weed control at 125 g/ha: 125 g ai/ha; for pest or weed control at 500 g/ha: 500 g ai/ha
In short: as §1

[5] = test system: pigweed (Amaranthus retroflexus); test: Test A preemergence; type: in vivo; conditions: Amaranthus retroflexus, pre-emergence, 240 h; for pest or weed control at 125 g/ha: 125 g ai/ha; for pest or weed control at 500 g/ha: 500 g ai/ha
[6] = preemergence, visual rating after approx. 10 d, 0 to 100 scale where 0 is no effect and 100 is complete control, read-out: Plant response rating, Ryegrass, Italian
[7] = preemergence, visual rating after approx. 10 d, 0 to 100 scale where 0 is no effect and 100 is complete control, read-out: Plant response rating, Barnyardgrass
[8] = preemergence, visual rating after approx. 10 d, 0 to 100 scale where 0 is no effect and 100 is complete control, read-out: Plant response rating, Foxtail, Giant
[9] = preemergence, visual rating after approx. 10 d, 0 to 100 scale where 0 is no effect and 100 is complete control, read-out: Plant response rating, Kochia
[10] = preemergence, visual rating after approx. 10 d, 0 to 100 scale where 0 is no effect and 100 is complete control, read-out: Plant response rating, Ragweed
[11] = preemergence, visual rating after approx. 10 d, 0 to 100 scale where 0 is no effect and 100 is complete control, read-out: Plant response rating, Pigweed
[12] = preemergence, visual injury rating, 0 to 100 scale where 0 is no effect and 100 is complete control, approximately 10 d, read-out: Ryegrass, Italian plant response rating
[13] = preemergence, 0 to 100 scale where 0 is no effect and 100 is complete control, read-out: Ryegrass, Italian plant response rating
[14] = preemergence, visual injury rating, 0 to 100 scale where 0 is no effect and 100 is complete control, approximately 10 d, read-out: Barnyardgrass plant response rating
[15] = preemergence, 0 to 100 scale where 0 is no effect and 100 is complete control, read-out: Barnyardgrass plant response rating
[16] = preemergence, visual injury rating, 0 to 100 scale where 0 is no effect and 100 is complete control, approximately 10 d, read-out: Foxtail, Giant plant response rating
[17] = preemergence, 0 to 100 scale where 0 is no effect and 100 is complete control, read-out: Foxtail, Giant plant response rating
[18] = preemergence, visual injury rating, 0 to 100 scale where 0 is no effect and 100 is complete control, approximately 10 d, read-out: Kochia plant response rating
[19] = preemergence, 0 to 100 scale where 0 is no effect and 100 is complete control, read-out: Kochia plant response rating
[20] = preemergence, visual injury rating, 0 to 100 scale where 0 is no effect and 100 is complete control, approximately 10 d, read-out: Ragweed plant response rating
[21] = preemergence, 0 to 100 scale where 0 is no effect and 100 is complete control, read-out: Ragweed plant response rating
[22] = preemergence, visual injury rating, 0 to 100 scale where 0 is no effect and 100 is complete control, approximately 10 d, read-out: Pigweed plant response rating
[23] = preemergence, 0 to 100 scale where 0 is no effect and 100 is complete control, read-out: Pigweed plant response rating
[24] = preemergence, 0 to 100 scale (0 no effect, 100 complete control), read-out: Plant response rating, Ryegrass, Italian
[25] = Preemergence, 0 to 100 scale (0 no effect, 100 complete control), read-out: Plant response rating, Ryegrass, Italian
[26] = preemergence, 0 to 100 scale (0 no effect, 100 complete control), read-out: Plant response rating, Barnyardgrass
[27] = Preemergence, 0 to 100 scale (0 no effect, 100 complete control), read-out: Plant response rating, Barnyardgrass
[28] = preemergence, 0 to 100 scale (0 no effect, 100 complete control), read-out: Plant response rating, Foxtail, Giant
[29] = Preemergence, 0 to 100 scale (0 no effect, 100 complete control), read-out: Plant response rating, Foxtail, Giant
[30] = preemergence, 0 to 100 scale (0 no effect, 100 complete control), read-out: Plant response rating, Kochia
[31] = Preemergence, 0 to 100 scale (0 no effect, 100 complete control), read-out: Plant response rating, Kochia
[32] = preemergence, 0 to 100 scale (0 no effect, 100 complete control), read-out: Plant response rating, Ragweed
[33] = Preemergence, 0 to 100 scale (0 no effect, 100 complete control), read-out: Plant response rating, Ragweed
[34] = preemergence, 0 to 100 scale (0 no effect, 100 complete control), read-out: Plant response rating, Pigweed
[35] = Preemergence, 0 to 100 scale (0 no effect, 100 complete control), read-out: Plant response rating, Pigweed

SMILES	melting point	pest or weed control at 125 g/ha [1, 6]	pest or weed control at 125 g/ha [2, 7]	pest or weed control at 125 g/ha [3, 8]	pest or weed control at 125 g/ha (Kochia (Kochia scoparia); [9])	pest or weed control at 125 g/ha [4, 10]	pest or weed control at 125 g/ha [5, 11]	pest or weed control at 125 g/ha [1, 12]	pest or weed control at 500 g/ha [1, 13]	pest or weed control at 125 g/ha [2, 14]	pest or weed control at 500 g/ha [2, 15]	pest or weed control at 125 g/ha [3, 16]	pest or weed control at 500 g/ha [3, 17]	pest or weed control at 125 g/ha (Kochia (Kochia scoparia); [18])	pest or weed control at 500 g/ha (Kochia (Kochia scoparia); [19])	pest or weed control at 125 g/ha [4, 20]	pest or weed control at 500 g/ha [4, 21]	pest or weed control at 125 g/ha [5, 22]	pest or weed control at 500 g/ha [5, 23]	pest or weed control at 500 g/ha [1, 24]	also measured
CN1C[C@H](c2ccc(C(F)(F)F)cc2)[C@@H](C(=O)Nc2ccccc2C(F)(F)F)C1=O [Compound 726]	108 to 111 °C	50%	90%	90%	70%	30%	80%														pest or weed control at 500 g/ha ([1]; preemergence, 0 to 100 scale, 0 = no effect, 100 = complete control, read-out: Plant response rating, Ryegrass, Italian): 80%; pest or weed control at 500 g/ha ([2]; preemergence, 0 to 100 scale, 0 = no effect, 100 = complete control, read-out: Plant response rating, Barnyardgrass): 90%; pest or weed control at 500 g/ha ([3]; preemergence, 0 to 100 scale, 0 = no effect, 100 = complete control, read-out: Plant response rating, Foxtail, Giant): 90%; pest or weed control at 500 g/ha (Kochia (Kochia scoparia); preemergence, 0 to 100 scale, 0 = no effect, 100 = complete control, read-out: Plant response rating, Kochia): 90%; pest or weed control at 500 g/ha ([4]; preemergence, 0 to 100 scale, 0 = no effect, 100 = complete control, read-out: Plant response rating, Ragweed): 50%; pest or weed control at 500 g/ha ([5]; preemergence, 0 to 100 scale, 0 = no effect, 100 = complete control, read-out: Plant response rating, Pigweed): 90%
C/C=C/C1CNC(=O)C1C(=O)Nc1cccc(F)c1F (stereo not drawn) [Compound 793]	151 to 155 °C	0%	0%	0%	0%	0%	0%														pest or weed control at 31 g/ha ([1]; Preemergence, 31 g ai/ha, 0 to 100 scale (0 no effect, 100 complete control), read-out: Plant response rating, Ryegrass, Italian): 0%; pest or weed control at 31 g/ha ([2]; Preemergence, 31 g ai/ha, 0 to 100 scale (0 no effect, 100 complete control), read-out: Plant response rating, Barnyardgrass): 0%; pest or weed control at 31 g/ha ([3]; Preemergence, 31 g ai/ha, 0 to 100 scale (0 no effect, 100 complete control), read-out: Plant response rating, Foxtail, Giant): 0%; pest or weed control at 31 g/ha (Kochia (Kochia scoparia); Preemergence, 31 g ai/ha, 0 to 100 scale (0 no effect, 100 complete control), read-out: Plant response rating, Kochia): 0%; pest or weed control at 31 g/ha ([4]; Preemergence, 31 g ai/ha, 0 to 100 scale (0 no effect, 100 complete control), read-out: Plant response rating, Ragweed): 0%; pest or weed control at 31 g/ha ([5]; Preemergence, 31 g ai/ha, 0 to 100 scale (0 no effect, 100 complete control), read-out: Plant response rating, Pigweed): 0%
CN1C[C@H](c2ccc(C(F)(F)F)cc2)[C@@H](C(=O)Nc2cccc(Cl)c2F)C1=O [Compound 1238]	138 to 141 °C							0%	50%	80%	90%	90%	90%	60%	60%	0%	50%	0%	60%		
CN1CC(c2cccc(OCC=C(Cl)Cl)c2)C(C(=O)Nc2cccc(F)c2F)C1=O (stereo not drawn) [Compound 1303]	124 to 127 °C							0%	0%	0%	30%	40%	90%	0%	0%	0%	0%	0%	30%		

Continued, in another order:

melting point	SMILES	pest or weed control at 125 g/ha [1, 6]	pest or weed control at 125 g/ha [2, 7]	pest or weed control at 125 g/ha [3, 8]	pest or weed control at 125 g/ha (Kochia (Kochia scoparia); [9])	pest or weed control at 125 g/ha [4, 10]	pest or weed control at 125 g/ha [5, 11]	pest or weed control at 125 g/ha [1, 12]	pest or weed control at 500 g/ha [1, 13]	pest or weed control at 125 g/ha [2, 14]	pest or weed control at 500 g/ha [2, 15]	pest or weed control at 125 g/ha [3, 16]	pest or weed control at 500 g/ha [3, 17]	pest or weed control at 125 g/ha (Kochia (Kochia scoparia); [18])	pest or weed control at 500 g/ha (Kochia (Kochia scoparia); [19])	pest or weed control at 125 g/ha [4, 20]	pest or weed control at 500 g/ha [4, 21]	pest or weed control at 125 g/ha [5, 22]	pest or weed control at 500 g/ha [5, 23]	pest or weed control at 500 g/ha [1, 24]	also measured
101.6 to 102.3 °C	Cc1ccc([C@H]2CN(C)C(=O)[C@@H]2C(=O)Nc2ccc(F)c(F)c2F)cc1 [Compound 1378]																			90%	pest or weed control at 125 g/ha [1, 25]: 80%; pest or weed control at 500 g/ha [2, 26]: 90%; pest or weed control at 125 g/ha [2, 27]: 90%; pest or weed control at 500 g/ha [3, 28]: 90%; pest or weed control at 125 g/ha [3, 29]: 90%; pest or weed control at 500 g/ha (Kochia (Kochia scoparia); [30]): 90%; pest or weed control at 125 g/ha (Kochia (Kochia scoparia); [31]): 80%; pest or weed control at 500 g/ha [4, 32]: 90%; pest or weed control at 125 g/ha [4, 33]: 50%; pest or weed control at 500 g/ha [5, 34]: 70%; pest or weed control at 125 g/ha [5, 35]: 70%
170 to 173 °C	O=C1NC[C@H](c2cnc(C(F)(F)F)nc2)[C@H]1C(=O)Nc1cccc(F)c1F [Compound 1382]																			0%	pest or weed control at 125 g/ha [1, 25]: 0%; pest or weed control at 500 g/ha [2, 26]: 70%; pest or weed control at 125 g/ha [2, 27]: 0%; pest or weed control at 500 g/ha [3, 28]: 90%; pest or weed control at 125 g/ha [3, 29]: 0%; pest or weed control at 500 g/ha (Kochia (Kochia scoparia); [30]): 60%; pest or weed control at 125 g/ha (Kochia (Kochia scoparia); [31]): 0%; pest or weed control at 500 g/ha [4, 32]: 0%; pest or weed control at 125 g/ha [4, 33]: 0%; pest or weed control at 500 g/ha [5, 34]: 20%; pest or weed control at 125 g/ha [5, 35]: 20%
